Data taken from US4132737A, “Trifluoromethyl substituted 1-aminoindanes” (Eli Lilly and Company, priority 1978, dated 1979).
Structures can show the parent of a compound that is named as a salt.

Tests used:
[1] = molecular target: T1, norephineprine N-methyl transferase (Oryctolagus cuniculus, UniProt G1TT82); assay: in vitro inhibition of N-methyl transferase (NMT) from rabbit adrenals; type: biochemical; conditions: from concentration giving 50 percent inhibition, decreasing concentrations from 1 × 10^-4 M, read-out: pI50 (converted)
T1 construct: employing NMT from rabbit adrenals; from tissue; host or cells: rabbit adrenals
T1 sequence (G1TT82 1-286): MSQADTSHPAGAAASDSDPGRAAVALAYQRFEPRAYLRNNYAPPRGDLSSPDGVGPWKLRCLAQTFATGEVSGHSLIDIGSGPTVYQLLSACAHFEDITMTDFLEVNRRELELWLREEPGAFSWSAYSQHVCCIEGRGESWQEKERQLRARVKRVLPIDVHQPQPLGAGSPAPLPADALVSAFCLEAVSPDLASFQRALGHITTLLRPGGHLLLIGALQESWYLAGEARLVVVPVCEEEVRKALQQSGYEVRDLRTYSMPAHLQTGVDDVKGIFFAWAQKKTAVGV
Text: The compounds of this invention, either in the form of the free base, or as a pharmaceutically-acceptable acid addition salt thereof, are enzyme inhibitors. In particular, as previously stated, they are inhibitors of norephineprine N-methyl transferase [PNMT or phenethanolamine N-methyl transferase - - see Axelrod, J. Bio. Chem., 237, 1657 (1962)]. Compounds which inhibit the conversion of norephineprine to ephineprine are capable of lowering a high ephineprine-norephineprine ratio in mammals, a physiological condition frequently associated with essential hypertension. The compounds of this invention are thus capable of ameliorating the ephineprine-norephineprine imbalance in essential hypertension, an important aspect of the treatment of this disease state. The effectiveness of the compounds as N-methyl transferase inhibitors has been measured in vitro employing NMT from rabbit adrenals. By using a series of decreasing concentration of the inhibiting amine, usually starting with 1 × 10^-4 M continuing with 3 × 10^-5 M, 1 × 10^-5 M, etc., it was possible to determine a concentration at which the 50 percent inhibition of NMT was achieved. The negative reciprocal logarhithm (pI50) of this number was also calculated as a useful index. Table 1, which follows, summarizes the information thus obtained; i.e., the determination of enzyme inhibition activity for the compounds of this invention. […]

catechol amine uptake = conditions: literature statement, no figures; cited from earlier work

Structure (SMILES) | pKa (pKa determination) | IC50 [1] [µM] | inhibitor of catechol amine uptake, compared with 1-aminoindane (catechol amine uptake)
NC1CCc2c1cccc2C(F)(F)F (centres unmarked) [4-trifluoromethyl-1-aminoindane hydrochloride] | 8.58 | 0.234 | –
NC1Cc2ccccc2C1 [2-aminoindane] | – | – | better inhibitor of catechol amine uptake than 1-aminoindane
NC1CCc2ccc(C(F)(F)F)cc21 (centres unmarked) [6-Trifluoromethyl-1-aminoindane hydrochloride] | 8.52 | 64.6 | –
